pIC50: −log10 of the molar value.
Tests used:
[1] = biological target: Tyrosine-protein kinase JAK1 (Homo sapiens, UniProt P23458)
[2] = biological target: Tyrosine-protein kinase JAK2 (Homo sapiens, UniProt O60674)
[3] = biological target: T1, Tyrosine-protein kinase JAK3 (Homo sapiens, UniProt P52333)
T1 sequence (P52333 whole entry): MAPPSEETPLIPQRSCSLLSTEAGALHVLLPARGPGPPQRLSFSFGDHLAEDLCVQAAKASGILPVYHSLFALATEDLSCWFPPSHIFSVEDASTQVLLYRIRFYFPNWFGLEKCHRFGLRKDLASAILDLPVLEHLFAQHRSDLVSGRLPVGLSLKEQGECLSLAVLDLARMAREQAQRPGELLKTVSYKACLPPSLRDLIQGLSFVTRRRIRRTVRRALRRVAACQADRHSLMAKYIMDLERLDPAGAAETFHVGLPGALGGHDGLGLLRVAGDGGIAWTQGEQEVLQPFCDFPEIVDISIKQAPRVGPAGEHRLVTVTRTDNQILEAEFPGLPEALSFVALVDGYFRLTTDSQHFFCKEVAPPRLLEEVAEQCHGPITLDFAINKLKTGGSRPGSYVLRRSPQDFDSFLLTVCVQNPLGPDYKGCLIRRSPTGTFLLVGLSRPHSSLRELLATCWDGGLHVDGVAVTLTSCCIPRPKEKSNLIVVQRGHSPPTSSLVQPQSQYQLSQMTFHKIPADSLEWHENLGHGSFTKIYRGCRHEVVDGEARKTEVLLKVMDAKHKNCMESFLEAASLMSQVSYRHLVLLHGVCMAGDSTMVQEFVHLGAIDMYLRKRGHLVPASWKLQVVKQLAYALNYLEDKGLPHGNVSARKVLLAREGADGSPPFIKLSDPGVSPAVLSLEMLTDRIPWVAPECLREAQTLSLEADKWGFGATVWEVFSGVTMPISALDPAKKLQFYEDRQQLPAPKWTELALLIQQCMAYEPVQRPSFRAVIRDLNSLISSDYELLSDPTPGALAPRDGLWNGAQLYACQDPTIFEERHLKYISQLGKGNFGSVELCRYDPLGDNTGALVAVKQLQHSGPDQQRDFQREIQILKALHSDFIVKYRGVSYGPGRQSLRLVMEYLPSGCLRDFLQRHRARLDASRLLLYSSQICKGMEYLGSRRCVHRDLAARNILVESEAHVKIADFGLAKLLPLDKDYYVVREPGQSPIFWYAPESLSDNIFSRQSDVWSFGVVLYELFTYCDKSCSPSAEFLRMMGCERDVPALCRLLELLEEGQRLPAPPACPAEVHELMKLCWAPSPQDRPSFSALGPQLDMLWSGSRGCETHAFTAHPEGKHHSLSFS

[4] = biological target: Non-receptor tyrosine-protein kinase TYK2 (Homo sapiens, UniProt P29597)
Non-receptor tyrosine-protein kinase TYK2, sequence (P29597 whole entry): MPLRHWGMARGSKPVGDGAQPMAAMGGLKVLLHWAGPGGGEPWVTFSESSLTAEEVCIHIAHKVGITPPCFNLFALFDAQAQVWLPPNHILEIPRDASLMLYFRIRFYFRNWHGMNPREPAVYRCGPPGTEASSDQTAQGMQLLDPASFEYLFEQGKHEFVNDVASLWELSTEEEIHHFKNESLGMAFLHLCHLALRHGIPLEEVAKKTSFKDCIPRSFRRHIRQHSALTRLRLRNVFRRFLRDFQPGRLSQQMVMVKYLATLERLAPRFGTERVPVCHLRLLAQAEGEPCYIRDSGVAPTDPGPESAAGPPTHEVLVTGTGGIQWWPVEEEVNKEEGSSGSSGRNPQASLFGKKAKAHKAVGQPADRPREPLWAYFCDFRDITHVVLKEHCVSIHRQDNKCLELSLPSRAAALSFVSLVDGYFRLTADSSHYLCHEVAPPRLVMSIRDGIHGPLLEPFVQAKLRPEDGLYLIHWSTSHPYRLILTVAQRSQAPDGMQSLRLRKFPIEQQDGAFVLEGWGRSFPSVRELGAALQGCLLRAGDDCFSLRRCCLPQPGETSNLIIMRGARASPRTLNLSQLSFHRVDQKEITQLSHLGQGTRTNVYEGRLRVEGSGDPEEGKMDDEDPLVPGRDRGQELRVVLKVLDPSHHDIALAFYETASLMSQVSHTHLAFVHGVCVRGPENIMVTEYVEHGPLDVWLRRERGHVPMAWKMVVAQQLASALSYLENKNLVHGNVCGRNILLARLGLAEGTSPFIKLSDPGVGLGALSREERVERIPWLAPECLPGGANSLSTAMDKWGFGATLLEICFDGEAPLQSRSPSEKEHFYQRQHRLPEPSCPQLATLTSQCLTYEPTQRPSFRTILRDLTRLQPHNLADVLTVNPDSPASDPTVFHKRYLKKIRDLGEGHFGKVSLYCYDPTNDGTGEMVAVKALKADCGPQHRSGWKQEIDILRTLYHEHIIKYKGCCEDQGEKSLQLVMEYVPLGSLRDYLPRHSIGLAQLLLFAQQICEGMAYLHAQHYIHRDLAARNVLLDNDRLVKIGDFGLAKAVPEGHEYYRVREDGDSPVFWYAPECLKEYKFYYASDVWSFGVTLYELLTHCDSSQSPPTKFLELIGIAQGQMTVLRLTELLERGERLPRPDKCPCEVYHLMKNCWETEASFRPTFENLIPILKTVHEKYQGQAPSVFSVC

Tyrosine-protein kinase JAK1, sequence (P23458 whole entry): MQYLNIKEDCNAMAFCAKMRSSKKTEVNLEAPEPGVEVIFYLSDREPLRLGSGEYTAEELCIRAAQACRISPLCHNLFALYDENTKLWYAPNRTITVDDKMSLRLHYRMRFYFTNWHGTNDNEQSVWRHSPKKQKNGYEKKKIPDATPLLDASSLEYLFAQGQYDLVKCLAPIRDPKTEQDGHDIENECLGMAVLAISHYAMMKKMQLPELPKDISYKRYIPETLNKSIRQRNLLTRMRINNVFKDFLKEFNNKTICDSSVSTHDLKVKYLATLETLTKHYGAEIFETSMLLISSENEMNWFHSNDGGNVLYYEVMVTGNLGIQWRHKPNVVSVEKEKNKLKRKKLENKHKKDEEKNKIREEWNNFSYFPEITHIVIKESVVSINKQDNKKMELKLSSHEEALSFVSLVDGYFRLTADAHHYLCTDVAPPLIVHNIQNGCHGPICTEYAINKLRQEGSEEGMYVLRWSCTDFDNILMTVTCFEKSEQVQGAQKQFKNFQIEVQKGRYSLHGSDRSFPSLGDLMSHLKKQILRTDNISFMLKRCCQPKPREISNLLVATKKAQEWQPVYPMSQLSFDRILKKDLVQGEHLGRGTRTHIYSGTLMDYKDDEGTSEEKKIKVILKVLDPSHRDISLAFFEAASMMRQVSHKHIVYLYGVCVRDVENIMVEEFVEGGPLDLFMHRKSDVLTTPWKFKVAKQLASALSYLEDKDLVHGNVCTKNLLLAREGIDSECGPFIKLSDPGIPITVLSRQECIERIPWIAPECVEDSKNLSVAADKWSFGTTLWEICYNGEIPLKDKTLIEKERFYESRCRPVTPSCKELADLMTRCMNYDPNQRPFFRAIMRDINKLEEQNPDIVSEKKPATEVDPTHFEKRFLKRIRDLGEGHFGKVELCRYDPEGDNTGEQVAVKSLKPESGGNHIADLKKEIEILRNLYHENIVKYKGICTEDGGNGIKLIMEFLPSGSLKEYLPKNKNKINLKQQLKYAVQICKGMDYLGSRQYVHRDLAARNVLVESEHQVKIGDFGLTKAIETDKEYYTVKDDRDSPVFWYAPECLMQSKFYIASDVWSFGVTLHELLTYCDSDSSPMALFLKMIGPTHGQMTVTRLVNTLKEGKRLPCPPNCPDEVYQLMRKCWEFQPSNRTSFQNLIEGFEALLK
Tyrosine-protein kinase JAK2, sequence (O60674 whole entry): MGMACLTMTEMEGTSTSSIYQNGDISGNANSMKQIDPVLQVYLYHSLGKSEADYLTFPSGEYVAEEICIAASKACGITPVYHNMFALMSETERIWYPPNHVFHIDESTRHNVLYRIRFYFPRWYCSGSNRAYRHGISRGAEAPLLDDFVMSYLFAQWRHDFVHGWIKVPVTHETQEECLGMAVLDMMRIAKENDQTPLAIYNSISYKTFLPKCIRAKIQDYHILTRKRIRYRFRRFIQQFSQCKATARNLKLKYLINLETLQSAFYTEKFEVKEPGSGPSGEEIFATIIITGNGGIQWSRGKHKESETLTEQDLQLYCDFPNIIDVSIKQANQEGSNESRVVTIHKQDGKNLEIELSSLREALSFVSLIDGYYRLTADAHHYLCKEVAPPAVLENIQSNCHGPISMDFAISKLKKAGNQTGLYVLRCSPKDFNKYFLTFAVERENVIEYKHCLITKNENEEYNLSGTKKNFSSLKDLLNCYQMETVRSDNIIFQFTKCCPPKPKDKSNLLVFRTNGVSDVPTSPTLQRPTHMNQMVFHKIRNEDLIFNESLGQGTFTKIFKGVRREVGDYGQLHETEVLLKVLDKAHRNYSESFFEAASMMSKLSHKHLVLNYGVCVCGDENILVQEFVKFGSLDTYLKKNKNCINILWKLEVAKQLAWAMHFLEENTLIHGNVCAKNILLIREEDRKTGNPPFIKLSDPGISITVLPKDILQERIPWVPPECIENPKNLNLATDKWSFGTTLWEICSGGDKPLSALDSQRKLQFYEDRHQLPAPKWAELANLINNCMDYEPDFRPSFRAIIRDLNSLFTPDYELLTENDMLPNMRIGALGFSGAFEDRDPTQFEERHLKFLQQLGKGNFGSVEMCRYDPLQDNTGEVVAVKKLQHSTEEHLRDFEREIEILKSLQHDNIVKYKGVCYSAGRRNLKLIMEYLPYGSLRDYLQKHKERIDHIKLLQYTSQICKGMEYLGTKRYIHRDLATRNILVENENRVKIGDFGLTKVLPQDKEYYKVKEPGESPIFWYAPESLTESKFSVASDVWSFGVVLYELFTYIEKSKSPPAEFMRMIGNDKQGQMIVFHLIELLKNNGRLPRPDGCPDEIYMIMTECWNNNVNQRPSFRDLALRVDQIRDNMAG

| Compound | pIC50 [1] | pIC50 [2] | pIC50 [3] | pIC50 [4] |
| --- | --- | --- | --- | --- |
| CCOC(=O)c1cccc(Nc2nc(N)n(C(=O)c3ccccc3F)n2)c1 | ≤ 5.00 | < 5.00 | < 5.00 | 5.22 |
| CN(C)c1cccc(Nc2nc(N)n(C(=O)c3c(F)cccc3F)n2)c1 | 7.41 | 5.30 | 5.70 | 7.15 |
| Nc1nc(Nc2cccnc2)nn1C(=O)c1c(F)cccc1F | 6.80 | < 5.00 | 5.30 | 6.52 |
| CN(C)c1ccc(Nc2nc(N)n(C(=O)c3c(F)cccc3F)n2)cc1 | 7.10 | 5.60 | 6.07 | 7.15 |
| Nc1nc(Nc2cccc(C(=O)O)c2)nn1C(=O)c1c(F)cccc1F | 6.21 | < 5.00 | < 5.00 | 6.16 |
| CCOC(=O)c1cccc(Nc2nc(N)n(C(=O)c3ccco3)n2)c1 | – | – | – | < 5.00 |
| Nc1nc(Nc2ccc(C(=O)O)cc2)nn1C(=O)c1c(F)cccc1F | 7.35 | 5.68 | 5.83 | 7.38 |
| CCOC(=O)c1cccc(Nc2nnc(N)[nH]2)c1 | – | – | – | < 5.00 |
| Nc1nc(Nc2ccccc2)nn1C(=O)c1c(F)cccc1F | 6.64 | ≤ 5.00 | 5.49 | 6.44 |
| CCOC(=O)c1cccc(Nc2nc(N)nn2C(=O)c2c(F)cccc2F)c1 | – | – | – | < 5.00 |
| CCOC(=O)c1cccc(Nc2nc(N)n(C(=O)c3ccccc3)n2)c1 | – | – | – | < 5.00 |
| CCOC(=O)c1cccc(Nc2nc(N)n(C(=O)c3ccc(C(F)(F)F)cc3)n2)c1 | – | – | – | < 5.00 |
| CCOC(=O)c1cccc(Nc2nc(N)n(C(=O)c3ccc(N(C)C)cc3)n2)c1 | – | – | – | < 5.00 |
| CCOC(=O)c1cccc(Nc2nc(N)n(C(=O)c3c(F)cccc3F)n2)c1 | 6.00 | < 5.00 | < 5.00 | 5.76 |
| Nc1nc(Nc2cccc(S(N)(=O)=O)c2)nn1C(=O)c1c(F)cccc1F | 7.72 | 5.60 | 5.90 | 7.15 |
| COC(=O)c1ccc(Nc2nc(N)n(C(=O)c3c(F)cccc3F)n2)cc1 | 6.30 | < 5.00 | < 5.00 | 6.12 |

— ChEMBL document CHEMBL1287810, “Diamino-1,2,4-triazole derivatives are selective inhibitors of TYK2 and JAK1 over JAK2 and JAK3” (Bioorg Med Chem Lett, 2010)
